Assay results taken from patent US10420341B2, “Herbicidal phenylpyrimidines” (BASF SE, priority 2015, dated 2019).

Tests used:
[1] = test system: APESV; assay: greenhouse pre-emergence herbicidal test; format: in vivo, Apera spica-venti; details: pre-emergence method, scale from 0 to 100
From the text: (§1) The seeds of the test plants were sown separately for each species. For the pre-emergence treatment, the active ingredients, which had been suspended or emulsified in water, were applied directly after sowing by means of finely distributing nozzles. The containers were irrigated gently to promote germination and growth and subsequently covered with transparent plastic hoods until the plants had rooted. This cover caused uniform germination of the test plants, unless this had been impaired by the active ingredients. Depending on the species, the plants were kept at 10-25° C. or 20-35° C., respectively. The test period extended over 2 to 4 weeks. During this time, the plants were tended, and their response to the individual treatments was evaluated. Evaluation was carried out using a scale from 0 to 100. 100 means no emergence of the plants, or complete destruction of at least the aerial moieties, and 0 means no damage, or normal course of growth. […] The plants used in the greenhouse experiments were of the following species: [table]

[2] = test system: ECHCG; assay: greenhouse pre-emergence herbicidal test; format: in vivo, Echinocloa crus-galli; details: pre-emergence method, scale from 0 to 100
From the text: as §1

[3] = test system: ALOMY; assay: greenhouse post-emergence herbicidal test; format: in vivo, Alopercurus myosuroides; details: post-emergence method, scale from 0 to 100
From the text: (§2) The seeds of the test plants were sown separately for each species. For the post-emergence treatment, the test plants were first grown to a height of 3 to 15 cm, depending on the plant habit, and only then treated with the active ingredients which had been suspended or emulsified in water. For this purpose, the test plants were either sown directly and grown in the same containers, or they were first grown separately as seedlings and transplanted into the test containers a few days prior to treatment. Depending on the species, the plants were kept at 10-25° C. or 20-35° C., respectively. The test period extended over 2 to 4 weeks. During this time, the plants were tended, and their response to the individual treatments was evaluated. Evaluation was carried out using a scale from 0 to 100. 100 means no emergence of the plants, or complete destruction of at least the aerial moieties, and 0 means no damage, or normal course of growth. […] The plants used in the greenhouse experiments were of the following species: [table]

[4] = test system: AVEFA; assay: greenhouse post-emergence herbicidal test; format: in vivo, Avena fatua; details: post-emergence method, scale from 0 to 100
From the text: as §2

[5] = test system: ECHCG; assay: greenhouse post-emergence herbicidal test; format: in vivo, Echinocloa crus-galli; details: post-emergence method, scale from 0 to 100
From the text: as §2

| Compound | herbicidal activity against APESV ([1]; application rate 500 g/ha) | herbicidal activity against ECHCG ([2]; application rate 500 g/ha) | herbicidal activity against ALOMY ([3]; application rate 500 g/ha) | herbicidal activity against AVEFA ([4]; application rate 500 g/ha) | herbicidal activity against AVEFA ([4]; application rate 1000 g/ha) | herbicidal activity against APESV ([1]; application rate 1000 g/ha) | other results |
| --- | --- | --- | --- | --- | --- | --- | --- |
| O=C(O)c1nc(C2CC2)ncc1-c1ccc(F)cc1F [example 133] | very good (a very good herbicidal activity is given at values of at least 85) | very good (a very good herbicidal activity is given at values of at least 85) | very good (a very good herbicidal activity is given at values of at least 85) | very good (a very good herbicidal activity is given at values of at least 85) | – | – | – |
| CC(C)OC(=O)CSC(=O)c1nc(C2CC2)ncc1-c1ccccc1Cl [example 279] | very good (a very good herbicidal activity is given at values of at least 85) | very good (a very good herbicidal activity is given at values of at least 85) | – | very good (a very good herbicidal activity is given at values of at least 85) | – | – | – |
| O=C(OC1CC1)c1nc(C2CC2)ncc1-c1ccccc1Cl [example 262] | very good (a very good herbicidal activity is given at values of at least 85) | very good (a very good herbicidal activity is given at values of at least 85) | – | good (A good herbicidal activity is given at values of at least 70) | – | – | – |
| CCSC(=O)c1nc(C2CC2)ncc1-c1ccccc1Cl [example 291] | very good (a very good herbicidal activity is given at values of at least 85) | very good (a very good herbicidal activity is given at values of at least 85) | – | very good (a very good herbicidal activity is given at values of at least 85) | – | – | herbicidal activity against ECHCG ([5]; application rate 500 g/ha): very good (a very good herbicidal activity is given at values of at least 85) |
| COC(=O)c1nc(C2CC2)ncc1-c1cc(F)ccc1C#N [example 218] | very good (a very good herbicidal activity is given at values of at least 85) | very good (a very good herbicidal activity is given at values of at least 85) | – | very good (a very good herbicidal activity is given at values of at least 85) | – | – | herbicidal activity against ECHCG ([5]; application rate 500 g/ha): very good (a very good herbicidal activity is given at values of at least 85) |
| CC(C)OC(=O)c1nc(C2CC2)ncc1-c1ccccc1Cl [example 252] | – | – | – | – | very good (a very good herbicidal activity is given at values of at least 85) | – | herbicidal activity against ECHCG ([2]; application rate 1000 g/ha): very good (a very good herbicidal activity is given at values of at least 85); herbicidal activity against ALOMY ([3]; application rate 1000 g/ha): very good (a very good herbicidal activity is given at values of at least 85) |
| N#Cc1cc(F)ccc1-c1cnc(C2CC2)nc1C(=O)O [example 157] | – | – | – | – | very good (a very good herbicidal activity is given at values of at least 85) | very good (a very good herbicidal activity is given at values of at least 85) | herbicidal activity against ALOMY ([3]; application rate 1000 g/ha): very good (a very good herbicidal activity is given at values of at least 85) |
| COc1ccc(C)c(-c2cnc(C3CC3)nc2C(=O)O)c1 [example 166] | very good (a very good herbicidal activity is given at values of at least 85) | very good (a very good herbicidal activity is given at values of at least 85) | good (A good herbicidal activity is given at values of at least 70) | – | – | – | herbicidal activity against ECHCG ([5]; application rate 500 g/ha): good (A good herbicidal activity is given at values of at least 70) |
| COC(=O)c1nc(C(F)(F)F)ncc1-c1ccccc1Cl [example 316] | – | – | – | – | good (A good herbicidal activity is given at values of at least 70) | good (A good herbicidal activity is given at values of at least 70) | herbicidal activity against ECHCG ([2]; application rate 1000 g/ha): good (A good herbicidal activity is given at values of at least 70) |
| COC(=O)c1nc(C2CC2)ncc1-c1ccc(F)cc1C#N [example 220] | very good (a very good herbicidal activity is given at values of at least 85) | – | very good (a very good herbicidal activity is given at values of at least 85) | very good (a very good herbicidal activity is given at values of at least 85) | – | – | – |
| COC(=O)c1nc(C2CC2)ncc1-c1ccccc1C#N [example 217] | very good (a very good herbicidal activity is given at values of at least 85) | very good (a very good herbicidal activity is given at values of at least 85) | good (A good herbicidal activity is given at values of at least 70) | – | – | – | herbicidal activity against ECHCG ([5]; application rate 500 g/ha): very good (a very good herbicidal activity is given at values of at least 85) |
| COC(=O)c1nc(C2CC2)ncc1-c1ccc(C)cc1C [example 231] | – | – | – | – | – | very good (a very good herbicidal activity is given at values of at least 85) | herbicidal activity against ECHCG ([2]; application rate 1000 g/ha): very good (a very good herbicidal activity is given at values of at least 85); herbicidal activity against ALOMY ([3]; application rate 1000 g/ha): good (A good herbicidal activity is given at values of at least 70); herbicidal activity against ECHCG ([5]; application rate 1000 g/ha): good (A good herbicidal activity is given at values of at least 70) |
| COc1ccc(CSC(=O)c2nc(C3CC3)ncc2-c2ccccc2Cl)cc1 [example 282] | very good (a very good herbicidal activity is given at values of at least 85) | – | – | very good (a very good herbicidal activity is given at values of at least 85) | – | – | – |
| COC(=O)c1nc(C2CC2)ncc1-c1ccccc1C(F)(F)F [example 239] | – | – | – | – | very good (a very good herbicidal activity is given at values of at least 85) | very good (a very good herbicidal activity is given at values of at least 85) | herbicidal activity against ECHCG ([2]; application rate 1000 g/ha): very good (a very good herbicidal activity is given at values of at least 85) |
| O=C(O)c1nc(C2CC2)ncc1-c1c(Cl)cc(Cl)cc1Cl [example 149] | – | – | – | – | very good (a very good herbicidal activity is given at values of at least 85) | very good (a very good herbicidal activity is given at values of at least 85) | herbicidal activity against ALOMY ([3]; application rate 1000 g/ha): very good (a very good herbicidal activity is given at values of at least 85) |
| COC(=O)c1nc(C2CC2)ncc1-c1ccccc1SC(F)(F)F [example 321] | – | – | – | – | herbicidal activity | – | – |
| Cc1ccc(C)c(-c2cnc(C3CC3)nc2C(=O)O)c1 [example 165] | very good (a very good herbicidal activity is given at values of at least 85) | – | very good (a very good herbicidal activity is given at values of at least 85) | very good (a very good herbicidal activity is given at values of at least 85) | – | – | – |
| COC(=O)c1nc(C2CC2)ncc1-c1cc(OC)ccc1C [example 229] | very good (a very good herbicidal activity is given at values of at least 85) | very good (a very good herbicidal activity is given at values of at least 85) | good (A good herbicidal activity is given at values of at least 70) | – | – | – | herbicidal activity against ECHCG ([5]; application rate 500 g/ha): very good (a very good herbicidal activity is given at values of at least 85) |
| Cc1c(F)cccc1-c1cnc(C2CC2)nc1C(=O)O [example 170] | – | – | – | – | – | very good (a very good herbicidal activity is given at values of at least 85) | herbicidal activity against ECHCG ([2]; application rate 1000 g/ha): very good (a very good herbicidal activity is given at values of at least 85); herbicidal activity against ALOMY ([3]; application rate 1000 g/ha): very good (a very good herbicidal activity is given at values of at least 85); herbicidal activity against ECHCG ([5]; application rate 1000 g/ha): good (A good herbicidal activity is given at values of at least 70) |
| COC(=O)c1nc(C2CC2)ncc1-c1c(Cl)cc(Cl)cc1Cl [example 209] | – | – | – | – | very good (a very good herbicidal activity is given at values of at least 85) | very good (a very good herbicidal activity is given at values of at least 85) | herbicidal activity against ALOMY ([3]; application rate 1000 g/ha): very good (a very good herbicidal activity is given at values of at least 85) |
| COC(=O)c1nc(C2CC2)ncc1-c1c(F)cc(Cl)cc1Cl [example 194] | good (A good herbicidal activity is given at values of at least 70) | – | good (A good herbicidal activity is given at values of at least 70) | very good (a very good herbicidal activity is given at values of at least 85) | – | – | – |
